Test results as given in patent US10046001B2, “Compositions and methods for reducing intraocular pressure” (UNIVERSITY OF MIAMI, priority 2013, dated 2018).

Key:
[1] = system: trabecular meshwork (TM) primary cells; experiment: mobility and cell shape changes of primary TM cells exposed to lipids (time-lapse imaging); type: cell-based, human; settings: for mobility and cell shape changes for trabecular meshwork (TM) primary cells due to exposure to lipids: 10 pmoles of lipid; for dynamics of filopodia formation: exposure to lipids vs vehicle
Method: FIGS. 2A and 2B show representative images of the effect of lipid on trabecular meshwork primary cells. The time lapsed images of cell at indicated time interval. A. The control TM cells were subjected to vehicle (5% DMSO) in phosphate buffered saline. […] A protrusion of filopodia in a cell is indicated by thick arrow head. At 2 minutes after addition of vehicle to 16 minutes, the protrusion remains unchanged. B. TM cells treated with 10 pmoles of lipid. Most cells have protrusions with only a few cells without them. The filopodia in lipid treated cells are dynamic, they undergo dynamic retraction starting at 1 or 2 minutes after addition of lipid in the serum free media, indicated by arrows. At 16 minutes filopodia are largely retracted.
Modulation of cell motility and shape. Compared to controls (vehicle-10% DMSO only treated) shape of primary TM cells (FIG. 2A), exposure to lipids changed the shape of cells promoting filopodia and motility (FIG. 2B). All these lipids promote contraction of filopodia (FIG. 2B, arrows) and well as expansion. These images were derived from time lapsed video imaging of primary TM cells and summary data from several donor derived cells. The exposure to lipids render the cells more dynamic with respect to filopodia formation and their dynamic expansion-contraction (Summarized in Table 1 (FIG. 11)). The motility and filopodia formation is affected by a variety of intrinsic and extrinsic factors such as age of the donors from where cell have been derived, cell density, composition of the medium, environmental temperature and incubation gas composition. The age of the donor and cell density are the most prominent factors.
TM cell culture experiments: Primary human TM cells were cultured from cadaveric corneo-scleral sections. The cells were isolated through a blunt dissection of the area containing and adjacent to the canal of Schlemm, followed by a 2 hour digestion in DPBS (cat #21-030-CV, Mediatech Inc, Manassas, Va.) suspension of 20% 0.01 μg/μL collagenase-A (cat #LS004194, Worthington, Lakewood N.J.). The blunt dissection and the proteolytic treatment were performed inside a 12 well culture plate (cat #665-180 Greiner Bio-One, Neuburg, Germany). Culture media containing [DMEM 1× (cat #10-017-CM, Mediatech Inc), 10% heat inactivated FBS (cat #35-016-CV, Mediatech), 0.5% 1.7 mM L-Glutamine (cat #G6392, Sigma-Aldrich), 1% Antibiotic-Antimycotic Solution (cat #30-004-CL, Mediatech)] was added after 2 hours to terminate digestion. A sterile microscopy slide (cat #56700-194, VMR) was placed on top of the tissue fragment to ensure bottom-contact and immobility inside the media well. The sections were cultured at 37° C. in 5% CO2 inside a cell culture incubator. Culture was washed with 1× DPBS 7 days later to remove tissue debris; media change occurred every 3-4 days. Thus obtained cells were trypsin-treated (cat #25-050-C1, Mediatech) and accordingly distributed the day before the transfection complexes were created using the ratio of 0.4 μg/uL of respective vector DNA to the transfection agent (Lipofectamine 2000, cat #11668-019, Invitrogen), prepared accordingly to the manufacturer's instructions Following addition to respective wells, the transfection reactions were allowed to take place over a 2.5 hour span, after which they were terminated through the addition of cell culture media. Cell assays and immunohistochemical analysis were performed at or within a 24 hour time mark in order to observe and track the effects of vector expression on morphological changes. Time-lapse microscopy was performed using cells grown on glass bottom chamber slides (cat #154534, Lab-Tek, Thermo Fisher Scientific Inc., Rochester N.Y.) and Zeiss AxioVert 200M, for the duration of 20 hours, with a snapshot every 15 minutes, starting at 24 hours post-transfection. Immunohistochemical analysis was performed on cells fixed with 4% PFA (cat #19943, USB Corp, Cleveland, Ohio) at time intervals of 0, 24, and 29 hours post-transfection. […]

[2] = system: primary TM cells embedded in collagen gel; experiment: collagen gel embedded expansion and/or contraction assay; type: cell-based, human; settings: 10 pmole lipid, collagen column length at 24 hours
Method: About 10,000 primary TM cells were placed in a capillary tube with rat collagen without (control) or after treatment with 10 pmole of indicated lipid. The change in collagen column length was measured at the end of 24 hours. Mean and standard deviation from three independent experiments are presented. As shown by yellow/gray zones, the expansions were categorized into four zones (2, 3 and 4 are identified), 1=[…]; 2=1.0 to 1.4 mm; 3=>1.4 mm but <2.0 mm; 4=2.0 and >2.0 mm.
Properties of cell ensembles in embedded matrix and assembled layer of cells on filter membranes. Gel embedded primary TM cells in collagen matrix in capillary tubes were prepared following established protocols (Ilagan, R. et al. Biotechniques. 2010; 48: 153-5), and their ability within the first 24 hours for expansion or contraction of gels (control) or the cells which were subjected to treatment with lipids for 1 hour in serum free medium prior to gel embedding were determined. Lipids that modulate cell expansion in matrix embedded assay systems (FIG. 3) were found. […] The extent of expansion was divided into four zones 1, 2, 3, and 4 (FIG. 3). The higher the number, the greater is the expansion.
Collagen gel expansion and/or contraction assay: Hydro-gel solution was prepared using 10× MEM (cat #11430, Invitrogen), Sodium Bicarbonate (cat #55761 Sigma-Aldrich), L-Glutamine (Sigma-Aldrich), HEPES (cat #15630, Invitrogen). The following solution was aliquoted in separate tubes for each transfection type. Transfection complexes were prepared in individual tubes containing a mixture of the transfection agent (Lipofectamine 2000, Invitrogen) and desired DNA vectors in a ratio of 0.4 ug/uL, following the manufacturer's preparation guidelines. Trabecular meshwork cells were obtained from a confluent layer of trypsin-treated 25 cm^2 cell culture flask (cat #353109, Becton Dickinson, Franklin Lakes, N.J.) sedimented for 5 minutes at 800 RPM. Cell pellet was then re-suspended in serum free DMEM 1×, (Mediatech) media, thoroughly mixed and finally, equally aliquoted into each respective transfection-complex containing vessel. The reaction was allowed to occur for 45 minutes, after which it was terminated through addition of cell culture media and rat tail collagen (cat #354249, BD, San Jose, Calif.) to initiate gel polymerization. The suspension was gently mixed by aspiration and aspirated into 1 mL single use needle syringe and injected into a borosilicate glass capillary (O.D −1.0 mm, IN.D −0.75 mm) (cat #TW100-6, WPI) to approximately half of its volume. A digital picture snapshot was taken of all capillaries prepared against a blank background with a millimeter scale, repeated at 24 and 48 hours. The hydro-gel containing capillaries were incubated inside a moisture chamber to prevent dehydration in a cell line incubator at 37° C. and 5% CO2. Photographs obtained were analyzed using ImageJ (v.1.43u) measuring between chosen points on the opposite ends of the gel. Amassed length data was statistically analyzed using Microsoft Excel (XP).

| SMILES | mobility and cell shape changes for trabecular meshwork (TM) primary cells due to exposure to lipids [1] | gel expansion/contraction of cells in artificial embedment [2] | dynamics of filopodia formation [1] |
| --- | --- | --- | --- |
| CCCCCCCCCCCCCC[C@@H](O)[C@@H](N)COP(=O)(O)O [C17 Sphinganine-1-phosphate] | showed an effect | showed an effect | – |
| CCCCCCCC/C=C\CCCCCCCC(=O)N[C@@H](CO)[C@H](O)CCCCCCCCCCCCCCC [Cer(d18:0/18:1(9Z))] | showed an effect | showed an effect | – |
| CCCCCCCC/C=C\CCCCCCCCCCCCCCCC(=O)N[C@@H](CO)[C@H](O)/C=C/CCCCCCCCCCCCC [Cer(d18:1/26:1(17Z))] | showed an effect | showed an effect | – |
| CCCC/C=C\CCCCCCCC(=O)O[C@H](COC(=O)CCCCCCCCCCC)COP(=O)([O-])OCC[N+](C)(C)C [PC(12:0/14:1(9Z))] | lack of any effect | lack of any effect | exception |
| CCCCCCCCCCCCC(=O)OC[C@H](COP(=O)([O-])OCC[N+](C)(C)C)OC(=O)CCCCCCCCCCCC [PC(13:0/13:0), 1,2-ditridecanoyl-sn-glycero-3-phosphocholine, reference compound] | lack of any effect | lack of any effect | exception |
| CCCCCCCCCCCCCCCCCC(=O)OC[C@H](COP(=O)(O)OCCN)OC(=O)CCCCCCCCCCCCCCCCC [PE(18:0/18:0)] | showed an effect | showed an effect | – |
| CCCC/C=C\C/C=C\CCCCCCCC(=O)O[C@H](COC(=O)CCCCCCCCCCC)COP(=O)(O)OC1C(O)C(O)C(O)[C@@H](O)C1O (some centres unmarked) [PI(12:0/17:2)9Z,12Z))] | showed an effect | showed an effect | – |
| CCCCC/C=C\C/C=C\C/C=C\C/C=C\CCCC(=O)O[C@H](COC(=O)CCCCCCCCCCCCCCCCC)COP(=O)(O)OC1[C@H](O)[C@H](O)C(O)[C@H](O)[C@H]1O (some centres unmarked) [PI(18:0/20:4)5Z,8Z,11Z,14Z))] | showed an effect | showed an effect | – |
| CCCCCCCCCCCCCC(=O)OC[C@@H](O)COP(=O)(O)OC[C@H](N)C(=O)O [PS(14:0/0:0)] | showed an effect | showed an effect | – |
| CCCCCCCCCCCCCCCCCC(=O)OC[C@@H](O)COP(=O)(O)OC[C@H](N)C(=O)O [PS(18:0/0:0)] | showed an effect | showed an effect | – |
| CCCCCCCCCCC/C=C/[C@@H](O)[C@H](COP(=O)([O-])OCC[N+](C)(C)C)NC(=O)CCCCCCCCCCCCCCCCCCCCCCCC [SM(d16:1/25:0)] | showed an effect | showed an effect | – |
| CCCCCCCCCCCCCCC[C@@H](O)[C@@H](N)CO [Sphinganine] | showed an effect | showed an effect | – |
